Results from patent US20100292320A1, “BENZOFURAN ANILIDE HISTONE DEACETYLASE INHIBITORS” (Gilead Colorado, Inc., priority 2007, published 2010).

Assays:
[1] = molecular target: T1, HDAC 6 (Homo sapiens, UniProt Q9UBN7); assay: HDAC 6 inhibition assay, fluorophore/quencher peptide substrate, no preincubation; assay type: biochemical; conditions: no preincubation of enzyme and compound; read-out: HDAC 6 inhibitory activity (IC50 [μM]) No preincubation
T1 sequence (Q9UBN7 1-1215): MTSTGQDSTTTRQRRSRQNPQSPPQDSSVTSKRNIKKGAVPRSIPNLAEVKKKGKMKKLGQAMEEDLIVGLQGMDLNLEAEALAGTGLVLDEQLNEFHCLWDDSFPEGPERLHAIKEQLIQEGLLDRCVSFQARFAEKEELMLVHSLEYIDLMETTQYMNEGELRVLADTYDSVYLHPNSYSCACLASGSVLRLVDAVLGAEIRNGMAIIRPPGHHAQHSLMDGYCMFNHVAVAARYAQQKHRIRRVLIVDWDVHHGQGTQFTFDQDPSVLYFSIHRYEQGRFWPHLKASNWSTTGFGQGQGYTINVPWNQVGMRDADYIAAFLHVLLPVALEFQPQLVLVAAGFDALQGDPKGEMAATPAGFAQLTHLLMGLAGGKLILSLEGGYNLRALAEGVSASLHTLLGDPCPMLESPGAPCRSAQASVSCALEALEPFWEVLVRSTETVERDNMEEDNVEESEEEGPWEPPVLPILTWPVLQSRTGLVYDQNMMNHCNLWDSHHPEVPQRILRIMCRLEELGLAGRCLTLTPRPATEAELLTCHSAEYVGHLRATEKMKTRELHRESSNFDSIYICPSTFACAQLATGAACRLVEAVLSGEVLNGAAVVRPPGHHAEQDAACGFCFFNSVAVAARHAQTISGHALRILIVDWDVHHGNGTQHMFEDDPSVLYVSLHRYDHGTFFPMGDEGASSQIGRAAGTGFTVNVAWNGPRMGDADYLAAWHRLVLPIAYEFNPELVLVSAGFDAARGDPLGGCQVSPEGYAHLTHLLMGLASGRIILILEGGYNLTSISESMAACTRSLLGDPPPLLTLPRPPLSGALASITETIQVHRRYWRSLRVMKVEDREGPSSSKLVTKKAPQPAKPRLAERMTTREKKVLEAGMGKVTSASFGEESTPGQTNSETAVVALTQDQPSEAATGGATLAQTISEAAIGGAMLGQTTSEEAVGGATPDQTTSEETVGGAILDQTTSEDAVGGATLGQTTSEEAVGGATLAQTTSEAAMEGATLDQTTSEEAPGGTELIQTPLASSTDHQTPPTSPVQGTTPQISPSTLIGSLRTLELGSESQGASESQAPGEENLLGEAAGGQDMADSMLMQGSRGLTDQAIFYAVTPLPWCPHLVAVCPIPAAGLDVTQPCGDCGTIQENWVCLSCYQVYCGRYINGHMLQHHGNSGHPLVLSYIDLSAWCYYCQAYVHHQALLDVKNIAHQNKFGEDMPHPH
Protocol: (§1) HDAC inhibitory activity of the compound of Example 1 was measured by two types of assays in which HDAC 1 and 6 were used as a target molecule. The first assay was carried out without preincubation after addition of the enzyme. The test compound was suspended in and titrated in DMSO. It was then spotted into a 384-well test plate. The enzyme, HDAC 1 or 6, was diluted in assay buffer containing 25 mM Tris-HCl (pH 8.0), 137 mM NaCl, 2.7 mM KCl, and 0.01% Tween-20 and added to the pre-spotted compound. The peptide substrate containing a fluorophore/quencher pair was diluted in the same assay buffer and added to the compound/enzyme mix initiating the reaction. The reaction incubated at room temperature for about 45 minutes. A concentrated developer solution was diluted in the assay buffer, and added to the reaction. The reaction was incubated at room temperature for about 15 minutes and relative fluorescence was read on an instrument reader.

[2] = molecular target: T1, HDAC 6; assay: HDAC 6 inhibition assay, fluorophore/quencher peptide substrate, 3-hour preincubation; assay type: biochemical; conditions: about 3 hours preincubation of enzyme/compound mix at room temperature; read-out: HDAC 6 inhibitory activity (IC50 [μM]) 3-hour preincubation
Protocol: (§2) The second assay is similar to the first assay described above, except that preincubation is carried out for about 3 hours after the enzyme is introduced. The test compound was suspended in, and titrated in DMSO. It was then spotted into a 384-well test plate. The enzyme, HDAC 1 or 6, was diluted in the same assay buffer as used in the previous assay and added to the pre-spotted compound. The enzyme/compound mix was incubated at room temperature for about 3 hours. The peptide substrate containing a fluorophore/quencher pair was diluted in the assay buffer and added to the compound/enzyme mix initiating the reaction. The reaction incubated at room temperature for 45 minutes. A concentrated developer solution was diluted in the assay buffer, and added to the reaction. The reaction was incubated at room temperature for about 15 minutes and relative fluorescence was read on an instrument reader.

[3] = molecular target: T2, HDAC 1 (Homo sapiens, UniProt Q13547); assay: HDAC 1 inhibition assay, fluorophore/quencher peptide substrate, no preincubation; assay type: biochemical; conditions: no preincubation of enzyme and compound; read-out: HDAC 1 inhibitory activity (IC50 [μM]) No preincubation
Protocol: as §1

[4] = molecular target: T2, HDAC 1; assay: HDAC 1 inhibition assay, fluorophore/quencher peptide substrate, 3-hour preincubation; assay type: biochemical; conditions: about 3 hours preincubation of enzyme/compound mix at room temperature; read-out: HDAC 1 inhibitory activity (IC50 [μM]) 3-hour preincubation
Protocol: as §2

T2 sequence (Q13547 whole entry, species assumed): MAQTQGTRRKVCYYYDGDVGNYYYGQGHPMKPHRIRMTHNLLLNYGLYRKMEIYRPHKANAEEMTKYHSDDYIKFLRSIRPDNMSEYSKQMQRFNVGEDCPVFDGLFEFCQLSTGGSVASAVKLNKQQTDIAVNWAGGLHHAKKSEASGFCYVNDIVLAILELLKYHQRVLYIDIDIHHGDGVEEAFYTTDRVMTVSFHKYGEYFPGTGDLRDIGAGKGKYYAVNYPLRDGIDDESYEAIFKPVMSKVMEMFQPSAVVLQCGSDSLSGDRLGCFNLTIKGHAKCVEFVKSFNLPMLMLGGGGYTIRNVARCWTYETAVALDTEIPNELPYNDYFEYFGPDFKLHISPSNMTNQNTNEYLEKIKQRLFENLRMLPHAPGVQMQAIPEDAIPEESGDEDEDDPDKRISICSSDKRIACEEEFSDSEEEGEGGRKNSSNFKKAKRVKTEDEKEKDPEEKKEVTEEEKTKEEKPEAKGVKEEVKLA

Structure (SMILES): CN(C)Cc1c(C(=O)NCCOc2ccc(C(=O)Nc3ccccc3N)cc2)oc2ccccc12 [Example 1, N-(2-aminophenyl)-4-[2-(3-dimethylaminomethylbenzofuran-2-ylcarbonylamino)-ethoxy]-benzamide]
- IC50 [1]: > 50 µM
- IC50 [2]: > 50 µM
- melting point: 205.1 °C
- IC50 [3]: 0.03 µM
- IC50 [4]: 0.0033 µM
